We go through 14 compounds from patent publication US20260207605A1, “KRAS G12D INHIBITORS AND USES THEREOF” (Abbisko Therapeutics Co., Ltd., priority 2022, published 2026).

The test system of data set [1] is AsPC-1. The experiment in a line: Anti-proliferative 2D CTG assay, AsPC-1. It counts as cell-based. The settings on record: Homo sapiens, ASPC1, 96 h, AsPC-1 cells, 4 days incubation, read-out: AsPC-1 cell IC50. How it is done: (§1) 1.1 Day 0 Cell Culture and Plating
(§2) Cells in a logarithmic growth phase were harvested and the cells were counted by using a […]. Cell viability was tested by using a trypan blue exclusion method to ensure that cell viability was above 90%. The cell concentration was adjusted to the desired final density, and 90 μL of cell suspension was added to a 96-well plate, then the cells were incubated overnight at 37° C., 5% CO2 and 95% humidity.
(§3) 10 μL PBS was added to each well of the TO plate containing cells. The CTG reagent was thawed and the plate was equilibrated to room temperature for 30 minutes. The CTG solution of 50 µL/well was added to each well. The cells were lysed by shaking on an orbital shaker for 5 minutes. The plate was left at room temperature for 20 minutes to stabilize the luminescence signal. The TO fluorescence signal value was read.
(§4) From the 10 mM stock solution, with a ratio of 1:5, 9-point serial dilutions were performed. The 10× medium containing the compound was transferred into corresponding wells of the 96 wells. The final maximum compound concentration was […] and the final DMSO concentration was 0.1%. The 96-well plate was placed in a 37° C. incubator and incubated for 4 days.
(§5) 50 μL/well of detection reagent (CTG) was added to the cells, and the signal was read in an Envision machine.
(§6) The percent inhibition (%) at each compound concentration was calculated from the signal in the HPE and ZPE control wells and the fluorescence signal in the individual compound wells included in each assay plate. […] The compound concentration required for inhibitory concentration at 50% (IC50) was determined using a four-parameter logarithmic dose-response equation by testing the concentration of the compound and the inhibition percentage value. The endpoint value (IC50) of the reference compound was assessed in each experiment as a quality control measure. If the endpoint value is within three times the expected value, the experiment may be considered acceptable.

Data set [2] addresses KRAS^G12D/cRAF (Homo sapiens, UniProt P01116, G12D). The experiment in a line: KRAS G12D/cRAF binding test (Alphalisa). The settings on record: His-tagged KRAS G12D with GMPPNP, GST-tagged cRAF. On the procedure: The compound was dissolved in 100% DMSO at a starting concentration of 5 mM and diluted in DMSO with a 3-fold serial dilution method for a total of 8 concentration points. 1 μL of the compound or DMSO at each concentration point was added into 99 μL of the experimental buffer to obtain 10× stock solution.
The ratio for each compound concentration was calculated from the signal of the DMSO control group contained in each assay plate and the Alphalisa signal in each compound well. The compound concentration required for inhibitory concentration at 50% (IC50) was determined using a four-parameter logarithmic dose-response equation by testing the concentration of the compound and the value of the ratio. The endpoint value (IC50) of the reference compound was assessed in each experiment as a quality control measure. If the endpoint value is within three times the expected value, the experiment may be considered acceptable.
(In general: In Alpha technology, singlet oxygen from a donor bead excites a nearby acceptor bead.)

The test system of data set [3] is AGS. The experiment in a line: Anti-proliferative 2D CTG assay, AGS. In kind it is cell-based. The settings on record: Homo sapiens, AGS, 96 h, AGS cells, 4 days incubation, read-out: AGS cell IC50. How it is done:
as §1, §2, §3, §4, §5, §6

Data set [4] can be described thus: Pharmacokinetic experiment in mice (single PO or IV administration). The settings on record: male, ICR, mouse, plasma.
Source text: The purpose of this trial is to study the pharmacokinetic behavior of some compounds of the present invention, and the administration method is: single oral administration (PO) or intravenous administration (IV) to ICR mice.
ICR mice male N=9 original source: Shanghai Sippr-Bk Lab Animal Co., Ltd.
The compounds were weighed and dissolved in the corresponding solution (0.5% CMC+1% tween water solution or 10% PG+10% Solutol®+80% pH3 citrate buffer). The mixture was then shaken well and sonicated to prepare a 1 mg/mL stock solution. Nine mice were orally administered at a dose of 10 mg/kg or intravenously administered at a dose of 2 mg/kg after an overnight fast.
About 90 μL of blood was collected via the submandibular vein per time point, heparin sodium anticoagulant was added, the sample was placed on ice after collection, and plasma was centrifuged within 1 hour (centrifugation conditions: 8,000 rpm, 6 minutes, 2-8° C.). The blood collection timepoints were 0, 0.25, 0.5, 1, 2, 4, 6, 8 and 24 h. The samples were stored in a −20° C. refrigerator.
The plasma sample was 40 μL, 160 μL of ice-cold acetonitrile containing internal standard was added, vortexed for 3 minutes, and centrifuged at 11,000 rpm for 5 minutes. 100 μL of the supernatant was taken and added to 100 μL of water, 5 μL of the sample was taken and injected into LC/MS/MS for analysis.

KRAS^G12D/cRAF, sequence (P01116 1-188 isoform P01116-2 G12D): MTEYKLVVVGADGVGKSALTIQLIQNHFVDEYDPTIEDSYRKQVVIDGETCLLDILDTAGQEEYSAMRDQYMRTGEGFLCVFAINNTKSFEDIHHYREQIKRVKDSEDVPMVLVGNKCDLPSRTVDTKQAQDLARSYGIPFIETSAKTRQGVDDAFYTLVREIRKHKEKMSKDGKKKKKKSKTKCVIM

Regarding `C#Cc1c(F)ccc2cc(O)cc(-c3ncc4c(N5C[C@@H]6CC[C@](C7CC7)(C5)N6)nc(OC[C@@]56CCCN5C/C(=C/F)C6)nc4c3F)c12` [Example 90, 4-(4-((1S,5S)-1-cyclopropyl-3,8-diazabicyclo[3.2.1]octan-3-yl)-8-fluoro-2-(((S,E)-2-(fluoromethylene)tetrahydro-1H-pyrrolizin-7a(5H)-yl)methoxy)pyrido[4,3-d]pyrimidin-7-yl)-5-ethynyl-6-fluoronaphthalen-2-ol], the values for the concentration for half-maximal inhibition (IC50) in data set [1], in data set [2] and in data set [3] were 0.103 µM, 0.0407 µM and 0.0281 µM, respectively.
For the compound `C#Cc1c(F)ccc2cc(O)cc(-c3ncc4c(N5C[C@H]6CC[C@@H](C5)N6)nc(OC[C@@]56CCCN5C/C(=C\F)C6)nc4c3F)c12` [Reference Compound 1, 4-(4-((1R,5S)-3,8-diazabicyclo [3.2.1]octan-3-yl)-8-fluoro-2-(((S,Z)-2-(fluoromethylene)tetrahydro-1H-pyrrolizin-7a(5H)-yl)methoxy)pyrido[4,3-d]pyrimidin-7-yl)-5-ethynyl-6-fluoronaphthalen-2-ol, reference compound], in data set [4] (iv, 2 mg/kg), the AUC (usually the area under the concentration-time curve, a measure of exposure) stood at 688 ng·h/mL; the Cmax (as a rule, the peak of the concentration-time curve) was 1690 ng/mL; the half-life (as a rule, how long it takes for the measured level to halve) was 10.5 h. In data set [4] (po, 10 mg/kg), the AUC is 82.6 ng·h/mL; the Cmax came out at 33.2 ng/mL; the bioavailability (as a rule, the share of a dose that reaches the circulation, judged against a reference dose that is usually intravenous) was 2.4%; the half-life was 2.6 h.
For the compound `[2H]C([2H])([2H])[C@@]12CC[C@@H](CN(c3nc(OC[C@@]45CCCN4C/C(=C\F)C5)nc4c(F)c(-c5cc(O)cc6ccc(F)c(C#C)c56)ncc34)C1)N2` [Example 53, 5-ethynyl-6-fluoro-4-(8-fluoro-2-(((S,Z)-2-(fluoromethylene)tetrahydro-1H-pyrrolizin-7a(5H)-yl)methoxy)-4-((1R,5S)-1-(methyl-d3)-3,8-diazabicyclo [3.2.1]octan-3-yl)pyrido[4,3-d]pyrimidin-7-yl)naphthalen-2-ol], the IC50 (as a rule, the concentration needed to halve the response being measured) was 0.0166 µM in data set [2] and 0.001 µM in data set [3].
Regarding `C#Cc1c(F)ccc2cc(O)cc(-c3ncc4c(N5C[C@@H]6CC[C@](CC)(C5)N6)nc(OC[C@@]56CCCN5CC(=C)C6)nc4c3F)c12` [Example 20, 4-(4-((1R,5S)-1-ethyl-3,8-diazabicyclo[3.2.1]octan-3-yl)-8-fluoro-2-(((S)-2-methylenetetrahydro-1H-pyrrolizin-7a(5H)-yl)methoxy)pyrido[4,3-d]pyrimidin-7-yl)-5-ethynyl-6-fluoronaphthalen-2-ol], the figures for the IC50 in data set [1], in data set [2] and in data set [3] were 0.0172 µM, 0.003 µM and 0.0031 µM, respectively.
`[2H]C([2H])([2H])C([2H])([2H])[C@@]12CC[C@@H](CN(c3nc(OC[C@@]45CCCN4C/C(=C\F)C5)nc4c(F)c(-c5ccc(F)c6sc(N)c(C#N)c56)c(Cl)cc34)C1)N2` [Example 360, 2-amino-4-(6-chloro-4-((1R,5S)-1-(ethyl-d5)-3,8-diazabicyclo [3.2.1]octan-3-yl)-8-fluoro-2-(((S,Z)-2-(fluoromethylene)tetra-hydro-1H-pyrrolizin-7a(5H)-yl)methoxy)quinazolin-7-yl)-7-fluoro-benzo[b]thiophene-3-carbonitrile]: the concentration for half-maximal inhibition (IC50) in data set [2] was 0.0202 µM.
Turning to `[2H]C([2H])([2H])OCC12CCC(CN(c3nc(OCC45CC(=C)CN4CC(=C)C5)nc4c(F)c(-c5cc(O)cc6ccc(F)c(C#C)c56)nc(OC)c34)C1)N2` (single isomer, unassigned) [Example 173], the concentration for half-maximal inhibition (IC50) in data set [3] amounted to 0.0264 µM.
Regarding `C#Cc1c(F)ccc2cc(O)cc(-c3ncc4c(N5C[C@H]6CC[C@@H](C5)N6)nc(OC[C@@]56CCCN5CC(=C)C6)nc4c3F)c12` [Reference Compound 3, 4-(4-((1R,5S)-3,8-diazabicyclo [3.2.1]octan-3-yl)-8-fluoro-2-(((S)-2-methylenetetrahydro-1H-pyrrolizin-7a(5H)-yl)methoxy)pyrido[4,3-d]pyrimidin-7-yl)-5-ethynyl-6-fluoronaphthalen-2-ol, reference compound], in data set [4] (po, 10 mg/kg), the AUC was determined as 27.1 ng·h/mL, the Cmax stood at 10.7 ng/mL and the half-life was 2.6 h.
Turning to `[2H]C([2H])([2H])OCC12CCC(CN(c3nc(OCC45CC(=C)CN4CC(=C)C5)nc4c(F)c(-c5cc(O)cc6ccc(F)c(C#C)c56)ncc34)C1)N2` (stereo not drawn) [Example 1, 4-(2-((2,6-dimethylenetetrahydro-1H-pyrrolizin-7a(5H)-yl)methoxy)-8-fluoro-4-(1-((methoxy-d3)methyl)-3,8-diazabicyclo[3.2.1]octan-3-yl)pyrido[4,3-d]pyrimidin-7-yl)-5-ethynyl-6-fluoronaphthalen-2-ol], the IC50 in data set [2] was determined as 0.0374 µM; in data set [3] it was 0.0229 µM.
For the compound `C#Cc1c(F)ccc2cc(O)cc(-c3ncc4c(N5CC6CCC(C(C)(C)O)(C5)N6)nc(OCC56CC(=C)CN5CC(=C)C6)nc4c3F)c12` (stereo not drawn) [Example 2, 4-(2-((2,6-dimethylenetetrahydro-1H-pyrrolizin-7a(5H)-yl)methoxy)-8-fluoro-4-(1-(2-hydroxypropan-2-yl)-3,8-diazabicyclo[3.2.1]octan-3-yl)pyrido[4,3-d]pyrimidin-7-yl)-5-ethynyl-6-fluoronaphthalen-2-ol], the half-inhibitory concentration (IC50) was 0.0482 µM in data set [2] and 0.251 µM in data set [3].
Consider `C#Cc1c(F)ccc2cc(O)cc(-c3ncc4c(N5C[C@H]6CC[C@@H](C5)N6)nc(OC[C@@]56CCCN5C/C(=C/F)C6)nc4c3F)c12` [Reference Compound 2, 4-(4-((1R,5S)-3,8-diazabicyclo [3.2.1]octan-3-yl)-8-fluoro-2-(((S,E)-2-(fluoromethylene)tetrahydro-1H-pyrrolizin-7a(5H)-yl)methoxy)pyrido[4,3-d]pyrimidin-7-yl)-5-ethynyl-6-fluoronaphthalen-2-ol, reference compound], for which, in data set [4] (iv, 2 mg/kg), the AUC amounted to 718 ng·h/mL, the highest concentration (Cmax) worked out at 1350 ng/mL and the half-life was 14.1 h. In data set [4] (po, 10 mg/kg), this compound had an area under the curve (AUC) of 43.2 ng·h/mL, a peak concentration (Cmax) of 27.7 ng/mL, a bioavailability of 1.2% and a half-life of 2.3 h.
`[2H]C([2H])([2H])Oc1nc(-c2cc(O)cc3ccc(F)c(C#C)c23)c(F)c2nc(OC[C@@]34CCCN3C/C(=C\F)C4)nc(N3CC4CCC(CC)(C3)N4)c12` (stereo partly drawn) [Example 204, 4-(4-(1-ethyl-3,8-diazabicyclo [3.2.1]octan-3-yl)-8-fluoro-2-(((S,Z)-2-(fluoromethylene)tetrahydro-1H-pyrrolizin-7a(5H)-yl)methoxy)-5-(methoxy-d3)pyrido [4,3-d]pyrimidin-7-yl)-5-ethynyl-6-fluoronaphthalen-2-ol]: the results for the IC50 in data set [2] and in data set [3] were 0.0039 µM and 0.0051 µM, respectively.
Take `C#Cc1c(F)ccc2cc(O)cc(-c3ncc4c(N5CC6CCC(COC)(C5)N6)nc(OCC56CC(=C)CN5CC(=C)C6)nc4c3F)c12` (stereo not drawn) [Example 8, 4-(2-((2,6-dimethylenetetrahydro-1H-pyrrolizin-7a(5H)-yl)methoxy)-8-fluoro-4-(1-(methoxymethyl)-3,8-diazabicyclo[3.2.1]octan-3-yl)pyrido[4,3-d]pyrimidin-7-yl)-5-ethynyl-6-fluoronaphthalen-2-ol]: the half-inhibitory concentration (IC50) in data set [3] was 0.0368 µM.
Compound `C#Cc1c(F)ccc2cc(O)cc(-c3ncc4c(N5C[C@@H]6CC[C@](COC)(C5)N6)nc(OC[C@@]56CCCN5C/C(=C/F)C6)nc4c3F)c12` [Example 82, 5-ethynyl-6-fluoro-4-(8-fluoro-2-(((S,E)-2-(fluoromethylene)tetrahydro-1H-pyrrolizin-7a (5H)-yl)methoxy)-4-((1R,5S)-1-(methoxymethyl)-3,8-diazabicyclo [3.2.1]octan-3-yl)pyrido[4,3-d]pyrimidin-7-yl)naphthalen-2-ol] gave an IC50 in data set [2] of 0.0081 µM.
On to `[2H]C([2H])([2H])Oc1nc(-c2cc(O)cc3ccc(F)c(C#C)c23)c(F)c2nc(OCC34CC(=C)CN3CC(=C)C4)nc(N3CC4CCC(CC)(C3)N4)c12` (stereo not drawn) [Example 201, 4-(2-((2,6-dimethylenetetrahydro-1H-pyrrolizin-7a(5H)-yl)methoxy)-4-(1-ethyl-3,8-diazabicyclo[3.2.1]octan-3-yl)-8-fluoro-5-(methoxy-d3)pyrido[4,3-d]pyrimidin-7-yl)-5-ethynyl-6-fluoronaphthalen-2-ol], for which the IC50 in data set [3] came to 0.0216 µM.
